Measured values: publication PMC9332470, “Production and Selection of Antibody–Antigen Pairs for the Development of Immunoenzyme Assay and Lateral Flow Immunoassay Methods for Carbofuran and Its Analogues” (Biosensors, 2022)
Values after ≈ are worked out from the molar mass of the structure shown.

Assays:
mAb 13C8 [1] = experiment: quantum dot-based LFIA (QD-LFIA) with mAb 13C8; assay type: binding, BALB/c mice
Procedure: One milliliter of QDs was added to 9 mL of MES (0.054 M at pH 6.0) and centrifuged at 10,956× g for 20 min. Then, the precipitate was resuspended in 10 mL of MES (0.05 M at pH 6.0). After dispersion by ultrasonication for 2 min, EDC (20 mg) and NHS (20 mg) were added, and the reaction mixture was incubated for 30 min, followed by centrifugation at 10,956× g for 20 min. The precipitate was resuspended in 10 mL of MES (0.05 M at pH 6.0). Then, 1 mg of the mAb dissolved in 10 mL MES (0.027 M at pH 8.0) was added to the QD mixture and shaken at 25 °C and 180 rpm for 90 min. After the reaction, 5 mL of MES (0.054 M at pH 6.0 containing 1.6% BSA, w/v) was added, and the mixture was shaken at 25 °C and 180 rpm for 40 min, followed by centrifugation at 10,956× g for 20 min. The precipitate was resuspended in 10 mL of PB (0.01 M at pH 6.0, containing 5% casein, 1% glucose, 1.5% alanine and 0.05% NaN3, w/v) and dispersed by ultrasonication for 2 min.
The conjugate pad (6 mm × 300 mm) was pretreated with PBS (containing 0.5% Triton X-100, 0.5% alanine and 0.05% NaN3, w/v). Then, 1 mL of the mAb–QD conjugate was sprayed onto the pretreated conjugate pad at a flow rate of 10 μL/cm, and the pad was dried at 37 °C for 2 h. Other applied protocols were similar to those mentioned above.
Taking the logarithm of the carbofuran concentration as the abscissa and (B/B0)% as the ordinate, the standard curves for ELISA and QD-LFIA were obtained based on the Morgan–Mercer–Flodin (MMF) model, which were fitted by CurveExpert 1.4.0 software (https://www.curveexpert.net, accessed on 15 July 2022). For the ELISA method, B and B0 are the absorbance of the sample well and blank well, respectively. For the QD-LFIA method, B and B0 are the T/C (fluorescence intensity of the test line/fluorescence intensity of the control line) of the sample and blank control, respectively.
(§1) The inhibition ratio (I%) was calculated as (B0-B)/B0 × 100%. IC50 is the concentration of the carbofuran at an I% of 50%, and the limit of detection (LOD) was determined as the concentration showing 10% of inhibition.
The cross-reactivities (CRs) of benfuracarb, carbosulfan, 3-hydroxy-carbofuran, metolcarb, carbaryl, isoprocarb and aldicarb with carbofuran were assessed by ELISA and QD-LFIA. CR was calculated as CR (%) = [IC50 (carbofuran)/IC50 (analogues)] × 100%.
Then, to prepare QD-LFIA test strips, DDB-BSA (40 μg/mL), DDB-OVA (50 μg/mL), MDA-BSA (35 μg/mL) and MDA-OVA (30 μg/mL) were dispensed onto the NC membrane, and antibody 13C8 was conjugated to the QDs. Carbofuran standards (0, 0.05, 0.15, 0.45, 1.35 and 4.05 ng/mL) were detected to obtain a standard curve, and the IC50 was calculated. […] In LFIA, carbofuran in solution competed with the coating antigen on the NC membrane for antibody 13C8 conjugated to the QDs.
A standard curve was developed with the inhibition ratio (B/B0) versus the logarithm of the concentration of carbofuran.

mAb 7F9 = experiment: ELISA reactivity of hybridoma supernatant, cell line 7F9; assay type: binding, BALB/c mice; details: cell line 7F9 supernatant, 50 ng/mL pesticide
Procedure: (§2) The desired antibodies with the highest affinity were screened by icELISA with carbofuran as a competitive compound, and hybridoma cells were cloned by the limited dilution method. Then, the selected hybridoma cells were injected into mice for ascites production. Finally, the mAbs were purified by (NH4)2SO4 with saturation of 50% and further purified by an SPA column.
(§3) Microplates were coated with coating antigens. Different concentrations of the standard (50 µL) and the mAb (50 µL) were added to each well, and the plates were incubated for 20 min at 37 °C. The plates were washed with PBS (0.01 M, containing 0.05% (v/v) Triton X-100), 100 μL of goat anti-mouse IgG-HRP conjugate solution was added to each well, and the plates were incubated for 20 min at 37 °C. After the plates were washed with PBS (0.01 M, containing 0.05% Triton X-100, v/v), 100 µL of TMB single-component substrate solution was added to each well, followed by incubation at 37 °C for 10 min. Finally, the reaction was terminated, and the absorbance at 450 nm was measured by a microplate reader.
as §1
(§4) Then, the reactivity of the supernatant of the six cell lines to 50 ng/mL carbofuran, benfuracarb and carbosulfan was assessed by ELISA, and the results are shown in Table 1. […] Because 13C8 had the highest reactivity with carbofuran, benfuracarb and carbosulfan among the six cell lines, it was injected into mice for ascites production, and the mAbs were purified by a protein A column for further experiments.

mAb 13C8 [2] = experiment: ELISA reactivity of hybridoma supernatant, cell line 13C8; assay type: binding, BALB/c mice; details: cell line 13C8 supernatant, 50 ng/mL pesticide
Procedure: as §2, §3, §1, §4

mAb 18G3 = experiment: ELISA reactivity of hybridoma supernatant, cell line 18G3; assay type: binding, BALB/c mice; details: cell line 18G3 supernatant, 50 ng/mL pesticide
Procedure: as §2, §3, §1, §4

mAb 12D6 = experiment: ELISA reactivity of hybridoma supernatant, cell line 12D6; assay type: binding, BALB/c mice; details: cell line 12D6 supernatant, 50 ng/mL pesticide
Procedure: as §2, §3, §1, §4

[3] = system: specific antibody against carbofuran; details: double-label time-resolved fluorescent strip; cited from earlier work
[4] = system: mAb with the immunogen 3-succinyl-carbofuran-KLH; details: cited from earlier work

CNC(=O)Oc1cccc2c1OC(C)(C)C2 [carbofuran]
CR (%) (QD-LFIA) (mAb 13C8 [1]; CR = IC50(carbofuran)/IC50(analogue) x 100%, QD-LFIA with mAb 13C8): 100.0% | IC50 (QD-LFIA) (mAb 13C8 [1]; antibody 13C8, antigen DDB-BSA (40 μg/mL) on NC membrane): >1000 ng/mL | IC50 (QD-LFIA) (mAb 13C8 [1]; antibody 13C8, antigen DDB-OVA (50 μg/mL) on NC membrane): >1000 ng/mL | IC50 (QD-LFIA) (mAb 13C8 [1]; antibody 13C8, antigen MDA-BSA (35 μg/mL) on NC membrane): 0.68 ± 0.03 ng/mL (≈ 3.07 nM) | IC50 (QD-LFIA) (mAb 13C8 [1]; antibody 13C8, antigen MDA-OVA (30 μg/mL) on NC membrane): 0.66 ± 0.03 ng/mL (≈ 2.98 nM) | detection limit (QD-LFIA) (mAb 13C8 [1]; concentration showing 10% of inhibition): 0.04 ng/mL | reaction of QD-LFIA test strips (mAb 13C8 [1]; homologous coating antigens DDB-BSA and DDB-OVA): almost no reaction | working range (QD-LFIA) (mAb 13C8 [1]; optimized QD-LFIA): 0.04 to 4.21 ng/mL | IC50 (QD-LFIA) (mAb 13C8 [1]; optimized QD-LFIA, mAb 13C8-QD, T line antigen 30 μg/mL, given as MDA-BSA and MDA-OVA): 0.67 ± 0.08 ng/mL (≈ 3.03 nM) | IC50 of QD-LFIA with heterologous coating antigens (mAb 13C8 [1]; span over MDA-BSA and MDA-OVA): 0.66–0.68 ng/mL | Reactivity of mAb (I%) (mAb 7F9): 76% | Reactivity of mAb (I%) (mAb 13C8 [2]): 95% | Reactivity of mAb (I%) (mAb 18G3): 86% | Reactivity of mAb (I%) (mAb 12D6): 84% | detection limit [3]: 0.76 ng/mL | CR(%) (ic-ELISA) [4]: 100.0% | IC50 (ic-ELISA) [4]: 0.76 ± 0.07 ng/mL (≈ 3.43 nM)
